{
  "source": "patent US12070470B2",
  "about": "“Topoisomerase inhibitor for mimicking the effect of ionizing radiations on T cells” (Novagray, priority 2018, dated 2024)",
  "test_system": "CD8 T-lymphocyte",
  "assay": "Etoposide-induced CD8 T-lymphocyte apoptosis procedure (flow cytometry, compared with 8 Gy RILA)",
  "format": "cell-based, human",
  "details": "for Corresponding etoposide concentration: x̃i^co: concentration corresponding to 8 Gy RILA, applied at the start of cell culture, whole blood",
  "description": "Blood samples were purchased from Etablissement Français du Sang (EFS) with the convention number 21PLER2016-0100 AV01. Blood samples were collected from healthy donors in 5 mL heparinized tubes without separation gel.\nBlood cells were grown in RPMI-1640 with glutamax (Fisher scientific, France) supplemented with 20% fetal calf serum (FCS) (EuroBio, France). Cells were maintained at 37° C. with 5% CO2 during the experiments.\nEtoposide (EuroMedex) was solubilized in sterile dimethyl-sulfoxide (DMSO) at 75 mg/mL according to manufacturer instructions and stored at −80° C.\nBefore radiotherapy (RT), one blood sample was collected from each patient in a 5-mL heparinized tube. Twenty or twenty-four hours after blood collection, 200 μl of blood were aliquoted into a 6-well plate containing 2 mL of RPMI-20% FCS. All tests were carried out in triplicate for both 0 and 8 Gy. Ex-vivo irradiations were delivered after 24 hours of blood cell culture using the Xenx irradiator platform (XStrahl, UK). Then, the plates were immediately incubated for 48 hours at 37° C. (5% C02).\nSamples were then centrifuged for 5 min at 300 g. The pellets were resuspended in phosphate-buffered saline (PBS) containing 10 μl of anti-human CD8-FITC antibody (Becton Dickinson, USA) and incubated for 20 minutes at room temperature. Then, red blood cells were lysed by addition of 4 ml of lysis buffer diluted 1:10 in water (Becton Dickinson, USA). After another 20 minutes incubation time at room temperature, samples were centrifuged for 5 min at 300 g and the pellets were washed with 3 ml of PBS. Pellets were suspended in 200 μl of PBS containing 25 μg/ml of propidium iodide (Sigma, France) and 5 μl of RNAse A at 10 mg/ml (Qiagen, France). The samples were analyzed by flow cytometry within the next hours, using the CytoFlex (Beckman Coulter, USA).\nDifferent irradiation doses (0 Gy, 6 Gy, 8 Gy and 10 Gy) and different Etoposide concentrations (40 μg/mL, 60 μg/mL, 70 μg/mL, 80 μg/mL, 100 μg/mL) were applied to aliquots of the same blood sample.\nIrradiations and culture were performed as previously described. The staining was performed 48 hours after the irradiation using the same protocol as previously described.\nFor the Etoposide treatment, two hundred microliters of blood were aliquoted into a 6-well plate containing 2 mL of RPMI-20% FCS-Etoposide 24 hours after blood cell collection. The cell culture media containing the different concentrations of etoposide were made fresh just before starting the cell culture. After etoposide incubation with blood cells for at least 50 hours (generally more than about 60 hours, in particular between 65 and 75 hours), samples were stained for flow cytometry analysis as described above.\nTwo mixed linear models with fixed intercept, fixed slope and random intercept were used to model the RILA rate evolution according to the compound or to the irradiation dose in Gray.",
  "data": [
    {"smiles": "COc1cc([C@@H]2c3cc4c(cc3[C@@H](O[C@@H]3O[C@@H]5CO[C@@H](C)O[C@H]5[C@H](O)[C@H]3O)[C@H]3COC(=O)[C@H]23)OCO4)cc(OC)c1O", "note": "[etoposide]", "values": [
      {"measurement": "Corresponding etoposide concentration: x̃i^co", "setting": "Donor 1", "result": 66.2, "unit": "µg/mL"},
      {"measurement": "Corresponding etoposide concentration: x̃i^co", "setting": "Donor 2", "result": 70.1, "unit": "µg/mL"},
      {"measurement": "Corresponding etoposide concentration: x̃i^co", "setting": "Donor 3", "result": 67.1, "unit": "µg/mL"},
      {"measurement": "Corresponding etoposide concentration: x̃i^co", "setting": "Donor 4", "result": 106.1, "unit": "µg/mL"},
      {"measurement": "Corresponding etoposide concentration: x̃i^co", "setting": "Donor 5", "result": 87.1, "unit": "µg/mL"},
      {"measurement": "concentration at which the apoptosis rate obtained after irradiation is achieved", "setting": "treatment applied at the start of blood cell culture", "result": "less than 150 μg/ml"}
    ]}
  ]
}
